According to patent US6558686B1, “Method of coating medical devices with a combination of antiseptics and antiseptic coating therefor” (Baylor College of Medicine, priority 1995, dated 2003):

How the values were obtained:
Candida albicans [1] = experiment: Antimicrobial activity of coated silicone urinary catheters, initial and after 1 week in urine (Example 5); type: cell-based; conditions: for Candida albicans 1 week (antimicrobial activity of coated catheter): catheter segments incubated in urine for 1 week at 37° C.; for Candida albicans Initial (antimicrobial activity of coated catheter): silicone urinary catheter
Procedure: (§1) A first antiseptic solution was formed by dissolving chloroxylenol (200 mg/ml) in an 85:15 solution of butyl acetate: methanol that has NaOH (5 mg/ml of methanol). A second antiseptic solution was formed by dissolving thymol (150 mg/ml) in an 85:15 solution of butyl acetate: methanol that has NaOH (5 mg/ml of methanol). A third antiseptic solution was formed by dissolving chloroxylenol (200 mg/ml) and thymol (150 mg/ml) in an 85:15 solution of butyl acetate: methanol that has NaOH (5 mg/ml of methanol). Eighteen-french silicone urinary catheters were dipped in one of the above coating solutions for 1 hour at 45° C. The catheters were allowed to dry overnight then rinsed.

E. coli = experiment: as above; type: cell-based; conditions: for E. coli 1 week (antimicrobial activity of coated catheter): catheter segments incubated in urine for 1 week at 37° C.; for E. coli Initial (antimicrobial activity of coated catheter): silicone urinary catheter
Procedure: as §1

Enterococcus = experiment: as above; type: cell-based; conditions: for Enterococcus 1 week (antimicrobial activity of coated catheter): catheter segments incubated in urine for 1 week at 37° C.; for Enterococcus Initial (antimicrobial activity of coated catheter): silicone urinary catheter
Procedure: as §1

S. epidermidis [2] = experiment: as above; type: cell-based; conditions: for S. epidermidis 1 week (antimicrobial activity of coated catheter): catheter segments incubated in urine for 1 week at 37° C.; for S. epidermidis Initial (antimicrobial activity of coated catheter): silicone urinary catheter
Procedure: as §1

Pseudomonas = experiment: as above; type: cell-based, Pseudomonas aeruginosa; conditions: for Pseudomonas 1 week (antimicrobial activity of coated catheter): catheter segments incubated in urine for 1 week at 37° C.; for Pseudomonas Initial (antimicrobial activity of coated catheter): silicone urinary catheter
Procedure: as §1

Staph. epidermidis = experiment: Zones of inhibition, coated stainless steel cylinders on agar (Example 1); type: cell-based, Staphylococcus epidermidis; conditions: coated stainless steel cylinder, 18-24 hours at 37° C.
Procedure: (§2) Antiseptic coatings were applied to each of four stainless steel cylinders (0.5″ diameter×2″ length), using each of the above four antiseptic solutions, by dipping each cylinder for 1 minute at 50° C. in the respective solution.

Pseud. aeruginosa = experiment: as above; type: cell-based, Pseudomonas aeruginosa; conditions: coated stainless steel cylinder, 18-24 hours at 37° C.
Procedure: as §2

Candida albicans [3] = experiment: as above; type: cell-based; conditions: coated stainless steel cylinder, 18-24 hours at 37° C.
Procedure: as §2

P. aerug = experiment: Zones of inhibition, single-layer coated stainless steel cylinders (Example 4); type: cell-based; conditions: single-layer coated stainless steel cylinder, 18-24 hours at 37° C.
Procedure: (§3) Stainless steel cylinders (0.5×2″) were dipped in one of the three antiseptic coating solutions for 1 minute at 50° C. Devices were allowed to dry for at least 4 hours, then placed into agar plates that had been freshly overlaid with one of the microorganisms shown below in Table 4. After 18-24 hours of incubation at 37° C., the following measurements of zones of inhibition were recorded.

Candida albicans [4] = experiment: as above; type: cell-based; conditions: single-layer coated stainless steel cylinder, 18-24 hours at 37° C.
Procedure: as §3

[5] = cited from earlier work
S. epidermidis [6] = experiment: Zones of inhibition, single-layer coated stainless steel cylinders (Example 4); conditions: single-layer coated stainless steel cylinder, 18-24 hours at 37° C.
Procedure: as §3

Cc1cc(O)cc(C)c1Cl [Chloroxylenol, 4-chloro, 3,5-dimethyl phenol]
Candida albicans 1 week (antimicrobial activity of coated catheter) (Candida albicans [1]): 26
Candida albicans Initial (antimicrobial activity of coated catheter) (Candida albicans [1]): 30
E. coli 1 week (antimicrobial activity of coated catheter) (E. coli): 11
E. coli Initial (antimicrobial activity of coated catheter) (E. coli): 15
Enterococcus 1 week (antimicrobial activity of coated catheter) (Enterococcus): 10
Enterococcus Initial (antimicrobial activity of coated catheter) (Enterococcus): 13
S. epidermidis 1 week (antimicrobial activity of coated catheter) (S. epidermidis [2]): 20
S. epidermidis Initial (antimicrobial activity of coated catheter) (S. epidermidis [2]): 25
Pseudomonas 1 week (antimicrobial activity of coated catheter) (Pseudomonas): 0
Pseudomonas Initial (antimicrobial activity of coated catheter) (Pseudomonas): 10

[H]/N=C(\N/C(=N/[H])NCCCCCCNC(=N)NC(=N)Nc1ccc(Cl)cc1)Nc1ccc(Cl)cc1 [Chlorhexidine]
Zones of inhibition Staph. epidermidis (Staph. epidermidis): 31 m.m.
Zones of inhibition Pseud. aeruginosa (Pseud. aeruginosa): 28 m.m.
Zones of inhibition Candida albicans (Candida albicans [3]): 26 m.m.
Zones of inhibition P. aerug (P. aerug): 25 m.m.
Zones of inhibition Candida albicans (Candida albicans [4]): 28 m.m.
Solubility in acetic acid ([5]; acetic acid): soluble
Solubility in formic acid ([5]; formic acid): soluble
Solubility in organic solvents ([5]; organic solvents): generally not soluble
Zones of inhibition S. epidermidis (S. epidermidis [6]): 30 m.m.

Cc1ccc(C(C)C)c(O)c1 [Thymol, 5-methyl-2 isopropyl phenol]
Zones of inhibition Staph. epidermidis (Staph. epidermidis): 23 m.m.
Zones of inhibition Pseud. aeruginosa (Pseud. aeruginosa): 18 m.m.
Zones of inhibition Candida albicans (Candida albicans [3]): 14 m.m.
Candida albicans 1 week (antimicrobial activity of coated catheter) (Candida albicans [1]): 38
Candida albicans Initial (antimicrobial activity of coated catheter) (Candida albicans [1]): 60
E. coli 1 week (antimicrobial activity of coated catheter) (E. coli): 28
E. coli Initial (antimicrobial activity of coated catheter) (E. coli): 35
Enterococcus 1 week (antimicrobial activity of coated catheter) (Enterococcus): 17
Enterococcus Initial (antimicrobial activity of coated catheter) (Enterococcus): 28
S. epidermidis 1 week (antimicrobial activity of coated catheter) (S. epidermidis [2]): 30
S. epidermidis Initial (antimicrobial activity of coated catheter) (S. epidermidis [2]): 38
Pseudomonas 1 week (antimicrobial activity of coated catheter) (Pseudomonas): 0
Pseudomonas Initial (antimicrobial activity of coated catheter) (Pseudomonas): 11
